Bounds are passed on as bounds.

For one assay, the system named is S. aureus. The assay can be described thus: S. aureus viability on spinach leaves after plasma-activated mist exposure. The format is cell-based. To be noted: no plasma mist.
In another assay the test system is E. coli (ATCC 35150). The assay can be described thus: E. coli viability on spinach leaves after plasma-activated mist exposure. The format is cell-based. To be noted: no plasma mist. The protocol:
E. coli (ATCC 35150) cultures were grown to stationary phase in tryptic soy broth (TSB; Difco, Becton Dickinson, Franklin Lakes, N.J.). Aliquots of the prepared cultures were mixed into a volume of sterile Milli-Q water (Millipore, Billerica, Mass.) that yields an overall bacterial inoculum percentage of 2%. Thirty microliter aliquots of the bacterial culture were used to spot inoculate regions on the leaf surface of each leaf sample. Cultures were air dried on the leaf samples for 1 hour.
An Ultrasonic 360 humidifier (Safety 1st; Columbus, Ind.) was connected to plastic tubing and fed into a custom small-scale plasma generator. The plasma configuration consisted of two parallel brass plate electrodes that have an area of 40 mm×45 mm and thickness of 5 mm. Polyetherimide was used as the housing material for the electrodes. The upper electrode was connected to a high voltage power supply (1-20 kV) with operating parameters that can be adjusted while the lower electrode is grounded. The adjustable outlet of the setup released plasma-activated water mist onto inoculated leaves fixed 2 mm beneath the opening. Plasma-activated water mist was applied to the inoculated leaves at intervals from 15 seconds to 2 minutes. […]
Bacterial viability was […]. […] Data was analyzed using GraphPad Prism and InStat graphical and statistical software (GraphPad Software, Inc., La Jolla, Calif.). […]

As for `O=CC=Cc1ccccc1` [cinnamaldehyde], the “log10 reduction of S. aureus caused by additive alone” value in the assay with S. aureus was “less than 0.2”. Besides, in the assay on E. coli (ATCC 35150), the “log10 reduction of E. coli caused by additive alone” value is given as less than 0.4.

For the origin of these results see patent publication US20160015038A1, “TREATED CROP PLANTS OR PLANT FOOD PRODUCTS WITH DECREASED BACTERIAL VIABILITY AND METHODS AND APPARATUSES FOR MAKING THE SAME” (EP Technologies LLC, priority 2014, published 2016).
